In a melting point compilation (Tetko et al.; mined from patent text by program, amines drawn as free bases though some values may be those of a salt):

| Structure (SMILES) | melting point |
| --- | --- |
| COCc1c(C(=O)OC(C)C)ncc2[nH]c3ccc(CCc4ccc(Cl)cc4)cc3c12 | 149 to 151 °C |
| CCOC(=O)COc1ccc(S(=O)(=O)c2ccc(C)nc2Nc2c(C)cc(C)cc2C)cc1 | 116 to 118 °C |
| CCN1CCc2sc3ncn(CCCl)c(=O)c3c2C1 | 94 to 96 °C |
| COC(=O)c1ccc(CC(=O)c2ccccc2Cl)cc1 | 40 to 42 °C |
| O=C(O)c1cn(Cc2ccc(Oc3ccccc3)cc2)nc1OCc1ccc(Oc2ccccc2)cc1 | 141 to 142 °C |
| O=c1c(CO)cc(-c2ccc3c(c2)CCO3)nn1CC=Cc1ccc(Cl)cc1 | 131 to 141 °C |
| CCN(CC)C(=O)n1ccc(S(=O)(=O)c2cccc(Cl)c2Cl)n1 | 60 to 61.5 °C |
| NC(=O)c1ccc(-c2ccc3nnn(Cc4ccc5ncccc5c4)c3n2)cc1 | 229 to 231 °C |
| OCC=Cc1cccc(-c2nnn[nH]2)c1 | 174 °C |
| Clc1ccc(Cn2nncc2CN2CCC(c3ccccc3)(c3ccccc3)CC2)cc1 | 195 °C |
| COc1ccccc1NC(=NC#N)NC(NC(=O)c1ccc(Cl)cc1)C(C)(Cl)Cl (stereo unspecified) | 185 to 186 °C |
| CS(=O)(=O)N(c1cccc(CN2CCN(C(c3ccccc3)c3ccccc3)CC2)n1)S(C)(=O)=O | 167 to 169 °C |
| CCOC(=O)/C=C/c1cc(OCc2ccccc2)ccc1OCC | 124 to 125 °C |
| CCOC(=O)C#CC(C)(C)OC(N)=O | 111 to 114 °C |
| CCCCNc1ccc(Nc2ccccc2)c2c1C(=O)c1ccccc1C2=O | 118 to 120 °C |
| COc1ccc(Br)c2c1C1C(=O)N(C)C(=O)C1CC2 (stereo unspecified) | 201 to 202 °C |
| COC1=CC(N)C(C)(Cl)C=C1 (stereo unspecified) | 83 to 85 °C |
| Cc1ccc(-n2cc(CCCO)c(C(C)C)n2)nc1 | 82 to 83 °C |
| CS(=O)(=O)c1n[nH]c(NCCCCOc2cccc(CN3CCCCC3)c2)n1 | 79 to 81 °C |
| O=C(O)CCc1cn(Cc2ccc(OCc3csc(-c4ccccc4)n3)cc2)cc1-c1ccccc1 | 111 to 112 °C |
| O=C1c2cc(O)ccc2CCN1Cc1cccnc1 | 136 to 137 °C |
| O=C1c2ccccc2C(=O)c2c1cc(CO)c1c2CCC1 | 191 to 192 °C |
| CC(C#Cc1cccc(OCc2ccccc2)c1)N(O)C(N)=O (stereo unspecified) | 151 to 153 °C |
| Clc1ccc(Nc2nnc(OCc3ccncc3)c3ccccc23)cc1 | 139 to 141 °C |

| Structure (SMILES) | melting point |
| --- | --- |
| COC(=O)C=Cc1ccc(C(=O)NC[C@H](NC(=O)OCc2ccccc2)C(=O)OC(C)(C)C)s1 | 98 °C |
| OC(CN1CCC(c2noc3cc(F)ccc23)CC1)CN1CCc2ccccc2C1 (stereo unspecified) | 179 to 181 °C |
| COC1=CC=C(CN2CCN(CCCC(=O)c3ccc(F)cc3)CC2)C(F)C1=NNS(=O)(=O)c1ccc(C)cc1 (stereo unspecified) | 66 to 67 °C |
| CN1C(=O)N(c2c(Cl)cccc2Cl)Cc2cnc(NCCc3ccccc3)nc21 | 148 to 151 °C |
| CCCCc1nc(Cl)c(CNC(=O)OCC)n1Cc1ccc(-c2ccccc2C(=O)O)cc1 | 144 to 147 °C |
| O=C(c1ccccc1)N1CCC(C(Nc2ccc(F)cc2)c2ccc(F)cc2)CC1 (stereo unspecified) | 157 to 158 °C |
| CC(CCOc1c(-c2ccc(S(C)(=O)=O)cc2)cnn(-c2ccc(F)c(F)c2)c1=O)C(F)(F)F (stereo unspecified) | 126 to 128 °C |
| COC(CN(C)C(=O)Nc1nnc(C(C)Oc2ccccc2)s1)OC (stereo unspecified) | 117 to 121 °C |
| CN(Cc1ccco1)C1=N/C(=C\c2c[nH]c3ncc(Cl)cc23)C(=O)N1 | 315 °C |
| COc1cc(C)ccc1OCc1ccccc1 | 38 to 39 °C |
| [N-]=[N+]=NC1CC(n2cnc3c(N4CCCC4)nc(N)nc32)OC1CO (stereo unspecified) | 180 to 183 °C |
| CC(C)c1cc(NC(=O)N2CCN(c3ccnc(-c4cccc(F)c4F)n3)CC2)nnc1Cl | 192 to 193 °C |
| OCc1ccc(-c2ccccc2-c2nnn(C(c3ccccc3)(c3ccccc3)c3ccccc3)n2)cc1 | 168 to 170 °C |
| COC(=O)C1CC2CCC1N(C(=O)OC(C)(C)C)C2 (stereo unspecified) | 44 to 45 °C |
| CCCc1nn(-c2ccc(C(F)(F)F)cn2)cc1CCCOc1cc(CC(=O)O)ccc1OCC | 124 to 125 °C |
| CN(c1nnc(C(F)(F)F)s1)C1CCN(Cc2ccc(F)cc2)CC1 | 85.8 °C |
| C=C(CC)C(=O)c1ccc(OC(C)C(=O)O)c(Cl)c1Cl (stereo unspecified) | 115 to 119 °C |
| O=Cc1cccc2cc3c(cc12)sc1ccccc13 | 199 to 200 °C |
| CC(C)(C)C(=O)c1c[nH]c2ncc(-c3cccc(N)c3)nc12 | 239 to 241 °C |
| CC(=O)Oc1c(-c2ccccc2)sc2nc(C(C)(C)C)ccc12 | 128 to 129 °C |
| COc1cc(OC)nc(NC(=O)NS(=O)(=O)c2c(C(=O)C3CC3)cnn2C)n1 | 189 to 192 °C |
| Cc1ccccc1OCC(O)CNC(C)COc1cccnc1C(N)=O (stereo unspecified) | 145 to 161 °C |
| Cc1cc(C)n(-c2nnc3cc(Cl)ccc3n2)n1 | 174 °C |
| Cc1cc(Cl)ccc1N1CCCN(C)C1=S | 143 to 145 °C |

| Structure (SMILES) | melting point |
| --- | --- |
| COC(=O)c1cccc(S(=O)(=O)N(C)C)c1CS(=O)(=O)NC(=O)Nc1nc(OC)cc(OC)n1 | 175 to 180 °C |
| C=CCN(CC=C)Cc1noc(-c2ncn3c2CN(C)C(=O)c2ccccc2-3)n1 | 203 to 205 °C |
| CCOC(=O)c1ncn2c1CN(C)C(=O)c1c(F)cccc1-2 | 196 to 198 °C |
| CC(C)(C)OC(=O)C(=NO)C1=Nc2ccc(Cl)cc2C(c2ccccc2F)=NC1 | 212 to 214 °C |
| Cc1cc2c(cc1-c1cc(-c3ccc(C(=O)O)cc3)ccc1-c1ccccc1)C(C)(C)CCC2(C)C | 217 °C |
| CS(=O)(=O)c1ccc(-n2nc(-c3ccc4c(c3)CCN(C3CCC3)CC4)ccc2=O)cc1 | 225 °C |
| COc1cccc2c(NCc3ccccc3C)nc(N)nc12 | 274 to 275 °C |
| Cc1cc2oc(=O)c3c(c2cc1Cl)CC(N1CC2CCCC(C2)C1)NC3 (stereo unspecified) | 147 to 149 °C |
| O=C1NCc2c1cc1ccc3c(c1c2-c1ccccc1)OCO3 | 290 to 292 °C |
| O=c1oc2cc(OCc3nnn[nH]3)cc(OCc3nnn[nH]3)c2c2c1C(c1ccccc1)CCC2 (stereo unspecified) | 153 to 154 °C |
| COc1cc(C(C)=O)ccc1OCCCN1CCC(=C(c2ccc(Cl)cc2)c2ccc(Cl)cc2)CC1 | 143 to 144 °C |
| CC(C)c1ccc2nc3ccc(C(=O)NCCCCn4ccnc4)cn3c(=O)c2c1 | 165 to 167 °C |
| Cn1cc(C(=O)NCCC2CCN(S(=O)(=O)NC(=O)NC3CCCCC3)CC2)c(=O)n(C)c1=O | 205 to 207 °C |
| OCc1csc(NCc2ccccc2)n1 | 85 to 86.5 °C |
| CNc1cc(S(=O)(=O)c2ccc(N)cc2)cc(C)n1 | 126 to 127 °C |
| COc1ccc([C@@H]2O[C@@H](CC(=O)O)C(=O)N(CC(C)(C)C)c3ccc(Cl)cc32)c(OC)c1 | 233 to 234 °C |
| CC(=O)CCCc1c[nH]c2ccccc12 | 89 to 90 °C |
| Cc1ccc2c(c1)c(=O)c(CO)cn2C | 171 to 173 °C |
| Cc1nccn1Cc1nc2ccccc2n1-c1ccccc1 | 124 to 126 °C |
| CC(C)c1c(C=CC2CC(O)CC(O)O2)n(CC2CCCCC2)c(=O)c2ccccc12 (mixture of isomers) | 207 to 209 °C |
| O=C1[C@@H](O)[C@@H]2OCCC[C@@H]2N1Cc1ccccc1 (relative stereo) | 136 to 138 °C |
| CS(=O)(=O)c1ccc(-c2cc(-c3nc4ccccc4c(=O)n3-c3ccccc3)sc2N2CCOCC2)cc1 | > 275 °C |
| O=C(Oc1ccc(-c2ccc(O)c([N+](=O)[O-])c2)cc1)c1ccccc1 | 163 °C |
| CCOC(=O)CO[C@H]1CC[C@H](CCN(C(=O)c2ccccc2)S(=O)(=O)c2ccc(Cl)cc2)CC1 | 81 to 82 °C |

| Structure (SMILES) | melting point |
| --- | --- |
| O=C(O)Cc1ccsc1Cc1nc2c(F)c(F)cc(F)c2s1 | 142 to 144 °C |
| COc1cc2c(cc1OC)CN(CC(O)c1ccc(NC(=O)c3cccc4c(=O)c5cccc(OC)c5[nH]c34)cc1)CC2 (stereo unspecified) | 160 to 165 °C |
| CCOC(=O)c1cn(-c2nc(N)c(F)cc2F)c2c(F)c(F)c(F)c(NCc3ccccc3)c2c1=O | 176 to 180 °C |
| CCCCC(C(=O)Nc1c(C(C)C)cccc1C(C)C)C1c2ccccc2Oc2ccccc21 (stereo unspecified) | 188 to 189 °C |
| CCc1ccc(-c2nc3ccccc3o2)cc1 | 84 to 86 °C |
| CCCCOCCOc1ccc(-c2ccc3c(c2)C=C(C(=O)OC)CCN3C(=O)CNC(C)=O)cc1 | 130 to 134 °C |
| CC(=O)O[C@@H]1[C@H](OC(C)=O)[C@@H](C)O[C@H]1n1c(Br)nc2c(Br)c(Cl)c(Cl)cc21 | 152 to 154 °C |
| CC(C)C[C@H](NC(=O)Cc1csc2ccccc12)C(=O)N[C@@H](Cc1ccccc1)C(=O)CSCc1ccco1 | 150 to 153 °C |
| CCNC(=O)NCCc1cccc(-c2nc(=O)c3ccccc3s2)n1 | 240 to 242 °C |
| COc1ccc2c(c1)c(C)cc(=O)n2Cc1ccccc1Cl | 177 to 179 °C |
| BrCCCNC(c1ccccc1)(c1ccccc1)c1ccccc1 | 100 to 102 °C |
| CC1(C)CC(=O)N(CCOC(OCCN2C(=O)CC(C)(C)CC2=O)(C(=O)c2ccccc2)c2ccccc2)C(=O)C1 | 130 °C |
| C=CCCn1c(=O)c2c(ncn2CCC)n(C)c1=O | 48 °C |
| CC(C#Cc1cccc(Oc2ccc(F)cc2)c1)N(O)C(N)=O (stereo unspecified) | 137 to 138 °C |
| COc1ccc([N+](=O)[O-])c(OCC(N)=O)c1 | 185 to 187 °C |
| CC(=O)c1ccc(OCCCCNS(=O)(=O)c2ccc(Br)cc2)cc1 | 129 to 130 °C |
| CCCCNNc1nc(C)c(C(=O)OCC)c(Cl)c1[N+](=O)[O-] | 59 to 61 °C |
| Cc1nnc2c(Cl)nc([N+](=O)[O-])c(N)n12 | 220 °C |
| COC(=O)c1ccc(C2CNN=C2c2ccc(Cl)cc2)cc1 (stereo unspecified) | 155 to 159 °C |
| CC(C)OC(=O)Nc1cc(-c2ccnc3c(C(=O)c4cccs4)cnn23)ccc1N(C)C | 164 to 165 °C |
| COc1cc2cc3c(Cl)c(C#N)cnc3nc2cc1OC | > 300 °C |
| O=COCc1c(Cl)ccc2cc(Cl)cnc12 | 146 °C |
| COc1ccc2c(c1)CCN(CCc1ccc(NC=O)cc1)C2C (stereo unspecified) | 93 to 96 °C |
| CCOC(=O)c1cnc2cc(Cl)c(F)cc2c1O | 283 to 290 °C |
